Experimental data taken from patent US20210283107A1, “Methods to Expand the Spectrum of Gram-Positive Antibiotics” (NORTH CAROLINA STATE UNIVERSITY, priority 2016, published 2021).

Tested on: AB5075
Assay: G. mellonella model infected with AB5075, survival
Format: in vivo, Galleria mellonella
Experimental: Galleria mellonella larvae (Speedy Worm, Alexandria, Minn.) were used within ten days of shipment from the vendor. After reception of worms, larvae were kept in the dark at room temperature for at least 24 h before infection. Larvae weighing between 200 to 300 mg were used in the survival assay. Using a 10 μL glass syringe (Hamilton, Reno, Nev.) fitted with a 30 G needle (Exel International, St. Petersburg, Fl), 5 μL of the desired compound and concentration were injected into the last left proleg. After 2.5 h, a second 5 μL injection containing 6×10^5 CFU of Acinetobacter baumannii 5075 was injected into the second to last left proleg. Injected worms were left at room temperature in the dark while being assessed at 24 h intervals over 6 days. […] Experiment was repeated 7 times using 10 larvae per experimental group.

## Nc1nc(-c2ccc(NC(=O)c3cc(Cl)cc(Cl)c3)cc2)c[nH]1 [Compound 1]
Combination treatment of clarithromycin (25 mg/kg) and compound 1 (100 mg/kg)
  survival rate after 6 days: 42%
Compound 1 alone at 100 mg/kg
  survival after 6 days: 5%
